Reference: ChEMBL document CHEMBL3739381, “Evaluation of the anti-inflammatory/chondroprotective activity of aldose reductase inhibitors in human chondrocyte cultures” (Medchemcomm, 2015)
Calls of active or inactive are those of the source. The rule behind the calls is not given here.

Experiments:
[1] = Cytotoxicity against human articular chondrocytes assessed as cell viability at 2.5 to 10 uM by MTT assay
Homo sapiens [2] = species: Homo sapiens; test: Anti-inflammatory in human articular chondrocytes assessed as inhibition of IL-1beta-induced NFkappa-B p65 production at 2.5 to 10 uM after 72 hrs by Western blot analysis; assay type: functional, cell-based
Homo sapiens [3] = species: Homo sapiens; test: Anti-inflammatory in human articular chondrocytes assessed as inhibition of IL-1beta-induced ICAM-1 production at 2.5 to 10 uM after 72 hrs by Western blot analysis; assay type: functional, cell-based
Homo sapiens [4] = species: Homo sapiens; test: Anti-inflammatory in human articular chondrocytes assessed as inhibition of IL-1beta-induced nitrite production after 72 hrs by Griess assay; assay type: functional, cell-based
Homo sapiens [5] = species: Homo sapiens; test: Anti-inflammatory in human articular chondrocytes assessed as inhibition of IL-1beta-induced reduction of GAG level after 72 hrs by spectrophotometry analysis; assay type: functional, cell-based
[6] = Antioxidant activity of the compound in AAPH solution assessed as trolox equivalents for reduction of oxidative degradation by ORAC assay; assay type: physicochemical
Stromelysin-1 = Stromelysin-1 (Homo sapiens, UniProt P08254); test: Inhibition of MMP3 (unknown origin) using Pro-Leu-Gly-Leu-Dpa-Ala-Arg-NH2 as substrate after 3 mins by fluorimetric assay
Sequence of Stromelysin-1 (P08254 whole entry): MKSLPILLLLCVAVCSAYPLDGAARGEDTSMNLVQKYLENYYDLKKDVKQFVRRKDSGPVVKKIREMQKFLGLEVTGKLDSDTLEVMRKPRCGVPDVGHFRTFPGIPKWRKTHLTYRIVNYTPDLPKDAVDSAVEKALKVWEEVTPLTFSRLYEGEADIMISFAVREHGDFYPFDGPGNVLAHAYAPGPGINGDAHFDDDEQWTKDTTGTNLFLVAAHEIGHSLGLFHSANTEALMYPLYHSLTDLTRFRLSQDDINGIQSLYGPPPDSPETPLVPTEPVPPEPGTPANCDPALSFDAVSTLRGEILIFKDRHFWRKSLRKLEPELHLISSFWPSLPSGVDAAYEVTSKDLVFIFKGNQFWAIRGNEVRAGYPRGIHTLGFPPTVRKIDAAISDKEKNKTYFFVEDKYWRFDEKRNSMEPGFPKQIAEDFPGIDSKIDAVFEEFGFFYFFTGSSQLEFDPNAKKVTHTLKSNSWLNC

Collagenase 3 = Collagenase 3 (Homo sapiens, UniProt P45452); test: Inhibition of MMP13 (unknown origin) using Pro-Leu-Gly-Leu-Dpa-Ala-Arg-NH2 as substrate after 3 mins by fluorimetric assay

Row | Activity [6] [µM] | IC50 (Stromelysin-1; read-out: IC50) [µM] | IC50 (Collagenase 3) [µM] | IC50 (Stromelysin-1) | SMILES | Activity [1] | inhibition (Homo sapiens [2]) | inhibition (Homo sapiens [3]) | inhibition (Homo sapiens [4]) | inhibition (Homo sapiens [5])
1 | 0.39 | 17.5 | 55.3 |  | O=C1NC(=S)S/C1=C\c1cccc(Oc2ccccc2)c1 | Non-toxic | Active | Active | Dose-dependent effect | Dose-dependent effect
2 | 1.078 | 58.5 | 6.97 |  | O=C(O)CN1C(=O)/C(=C/c2ccc(OCc3ccccc3)cc2)SC1=S | Non-toxic | Active | Active | Dose-dependent effect | Dose-dependent effect
3 | 0.63 |  | 5.89 | Not Active | O=C1NC(=S)S/C1=C\c1cccc(OCc2ccccc2)c1 | Non-toxic | Active | Active | Dose-dependent effect | Dose-dependent effect
4 | 0.61 | 14.2 | 4.7 |  | O=C(O)CN1C(=O)/C(=C/c2cccc(Oc3ccccc3)c2)SC1=S | Non-toxic | Active | Active | Dose-dependent effect | Dose-dependent effect
5 | 0.52 | 48.4 | 3.99 |  | O=C1NC(=S)S/C1=C\c1ccc(Oc2ccccc2)cc1 | Non-toxic | Active | Active | Dose-dependent effect | Dose-dependent effect
6 | 0.6 | 77.4 | 0.64 |  | O=C1NC(=S)S/C1=C\c1ccc(OCc2ccccc2)cc1 | Non-toxic | Active | Active | Dose-dependent effect | Dose-dependent effect
7 | 0.76 | 8.96 | 3.8 |  | O=C(O)CN1C(=O)/C(=C/c2ccc(Oc3ccccc3)cc2)SC1=S | Non-toxic | Active | Active | Dose-dependent effect | Dose-dependent effect
8 | 0.65 | 4.19 | 1.59 |  | O=C(O)CN1C(=O)/C(=C/c2cccc(OCc3ccccc3)c2)SC1=S | Non-toxic | Active | Active | Dose-dependent effect | Dose-dependent effect
